Experimental data published in patent publication US11530229B2, “Cyano cyclobutyl compounds for CBL-B inhibition and uses thereof” (Nurix Therapeutics, Inc., priority 2019, dated 2022).
Like-named read-outs stand apart in the source and are kept apart here.

Experiments:
Cbl-b = Cbl-b (Homo sapiens (Human), UniProt Q13191); test: Cbl-b displacement assay (Cbl-b inhibition assay), Biological Example 1; assay type: binding
Procedure: Candidate compounds were evaluated for their ability to bind and inhibit Cbl-b, an E3 ubiquitin-protein ligase, as evidenced by their ability to displace a fluorophore-labeled probe (Example 59) bound to Cbl-b.
The ability of candidate compounds to displace a known inhibitor and thereby inhibit Cbl-b activity was measured by monitoring the interaction of Cbl-b with a fluorophore-labeled probe in the presence of the candidate compound. A truncated variant of Cbl-b (UniProt number Q13191; SEQ ID NO:1) containing an Avitag at its N-terminus was co-expressed with BirA biotin ligase and purified using a standard protocol (see Dou et al., Nature Structural and Molecular Biology, 8: 982-987, 2013; Avidity LLC).
Cbl-b Amino Acid Residues 36-427:
Fluorescently-labeled inhibitor probe was synthesized and tagged with BODIPY FL (Example 59). Cbl-b displacement assays were performed in a 384-well plate at room temperature in a 10 μL reaction volume by pre-incubating 0.5 nM Cbl-b or 0.125 nM Cbl-b (final concentration, indicated as “High” and “Low”, respectively) in an assay buffer containing 20 mM HEPES pH 7.5, 150 mM NaCl, 0.01% Triton X-100, 0.01% BSA and 0.5 mM TCEP in the presence of a candidate compound in 1% DMSO (final concentration) for 1 hour. After incubation in the presence of the candidate compound, the plate was incubated for an additional 1 hour in the presence of an approximate EC40 binding saturation consisting of 150 nM fluorescently-labeled inhibitor probe and 2 nM Streptavidin-Terbium (Cisbio) (final concentrations). Following the 1 hour incubation, the plates were read for TR-FRET signal at […] using an Envision plate reader (Perkin Elmer).

[1] = system: primary human total T-cells; test: T-cell activation, CD25 surface staining, Biological Example 2; assay type: cell-based; conditions: 48 hours, fold change over baseline; for fold induction at 0.3 µM: 0.3 μM inhibitor; for fold induction at 1 µM: 1 μM inhibitor; for fold induction at 3 µM: 3 μM inhibitor
[2] = system: primary human total T-cells; test: T-cell activation, IL-2 secretion, Biological Example 2; assay type: cell-based; conditions: 48 hours, fold change over baseline; for fold induction at 0.3 µM: 0.3 μM inhibitor; for fold induction at 1 µM: 1 μM inhibitor; for fold induction at 3 µM: 3 μM inhibitor
[3] = 0.125 nM Cbl-b final concentration (Low), read-out: Cbl-b activity IC50 (Low)
[4] = anti-CD3 and anti-CD28 co-stimulation
[5] = anti-CD3 and anti-CD28 co-stimulation, read-out: CD25 staining CD3/CD28 1 μM
[6] = anti-CD3 stimulation alone, read-out: CD25 staining CD3 1 μM
[7] = anti-CD3 and anti-CD28 co-stimulation, read-out: IL-2 secretion CD3/CD28 1 μM
[8] = anti-CD3 stimulation alone, read-out: IL-2 secretion CD3 1 μM
[9] = read-out: IC50 values in the Cbl-b inhibition assay of Biological Example 1

Cbl-b, sequence (Q13191 36-427): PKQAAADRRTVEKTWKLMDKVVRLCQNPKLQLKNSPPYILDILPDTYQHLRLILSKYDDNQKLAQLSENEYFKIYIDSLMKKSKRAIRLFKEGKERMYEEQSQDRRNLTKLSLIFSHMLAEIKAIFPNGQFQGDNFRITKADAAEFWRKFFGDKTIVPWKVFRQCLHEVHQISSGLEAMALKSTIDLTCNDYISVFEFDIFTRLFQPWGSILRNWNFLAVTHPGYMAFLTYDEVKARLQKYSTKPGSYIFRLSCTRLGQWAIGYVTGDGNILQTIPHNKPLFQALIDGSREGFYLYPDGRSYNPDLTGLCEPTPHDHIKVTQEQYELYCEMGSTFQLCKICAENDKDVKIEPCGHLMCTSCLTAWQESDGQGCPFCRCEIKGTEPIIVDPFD

Row | Compound | IC50 (Cbl-b; [3]) | fold induction at 0.3 µM [1, 4] | fold induction at 1 µM [1, 5] | fold induction at 1 µM [1, 6] | fold induction at 3 µM ([1]; anti-CD3 stimulation alone) | fold induction at 0.3 µM [2, 4] | fold induction at 1 µM [2, 7] | fold induction at 1 µM [2, 8] | fold induction at 3 µM ([2]; anti-CD3 stimulation alone) | IC50 (Cbl-b; [9])
1 | Cn1cnnc1C[C@]1(c2cccc(N3Cc4c(cc(CN5CCC[C@H](C(F)(F)F)C5)cc4C(F)(F)F)C3=O)c2)C[C@H](C#N)C1 [Compound 14, (1R,3r)-3-((4-methyl-4H-1,2,4-triazol-3-yl)methyl)-3-(3-(1-oxo-4-(trifluoromethyl)-6-(((S)-3-(trifluoromethyl)piperidin-1-yl)methyl)isoindolin-2-yl)phenyl)cyclobutane-1-carbonitrile] | 2 to 5 nM | ≤ 1.24 | ≤ 1.24 | ≤ 1 | ≤ 1 | 15 to 20 | 15 to 20 | 0.4 to 0.85 | 0.4 to 0.85 | 
2 | C[C@@H]1CN(Cc2cc3c(c(C(F)(F)F)c2)CN(c2cccc([C@]4(Cc5nncn5C)C[C@@H](C#N)C4)c2)C3=O)C[C@H](C)O1 [Compound 15, (1R,3r)-3-(3-(6-(((2R,6S)-2,6-dimethylmorpholino)methyl)-1-oxo-4-(trifluoromethyl)isoindolin-2-yl)phenyl)-3-((4-methyl-4H-1,2,4-triazol-3-yl)methyl)cyclobutane-1-carbonitrile] | 2 to 5 nM | 1.24 to 1.39 | 1.24 to 1.39 | 1 to 1.15 | 1 to 1.15 | ≤ 15 | 15 to 20 | 0.4 to 0.85 | > 0.85 | 
3 | Cn1cnnc1C[C@]1(c2cccc(N3Cc4c(cc(CN5CCO[C@H](C(F)(F)F)C5)cc4C(F)(F)F)C3=O)c2)C[C@H](C#N)C1 [Compound 16, (1S,3r)-3-((4-methyl-4H-1,2,4-triazol-3-yl)methyl)-3-(3-(1-oxo-4-(trifluoromethyl)-6-(((S)-2-(trifluoromethyl)morpholino)methyl)isoindolin-2-yl)phenyl)cyclobutane-1-carbonitrile] | 1 to 2 nM | 1.24 to 1.39 | 1.24 to 1.39 | 1 to 1.15 | ≤ 1 | ≤ 15 | 15 to 20 | 0.4 to 0.85 | > 0.85 | 1 to 2 nM
4 | Cn1cnnc1C[C@]1(c2cccc(N3Cc4c(cc(CN5CCCC(F)(F)CC5)cc4C(F)(F)F)C3=O)c2)C[C@H](C#N)C1 [Compound 17, (1r,3r)-3-(3-(6-((4,4-difluoroazepan-1-yl)methyl)-1-oxo-4-(trifluoromethyl)isoindolin-2-yl)phenyl)-3-((4-methyl-4H-1,2,4-triazol-3-yl)methyl)cyclobutane-1-carbonitrile] | 1 to 2 nM | 1.24 to 1.39 | 1.24 to 1.39 | 1 to 1.15 | ≤ 1 | 15 to 20 | > 20 | 0.4 to 0.85 | 0.4 to 0.85 | 1 to 2 nM
5 | C[C@@H]1C[C@H](C)CN(Cc2cc3c(c(C(F)(F)F)c2)CN(c2cccc([C@]4(Cc5nncn5C)C[C@@H](C#N)C4)c2)C3=O)C1 [Compound 18, (1R,3r)-3-(3-(6-(((3S,5R)-3,5-dimethylpiperidin-1-yl)methyl)-1-oxo-4-(trifluoromethyl)isoindolin-2-yl)phenyl)-3-((4-methyl-4H-1,2,4-triazol-3-yl)methyl)cyclobutane-1-carbonitrile] | < 1 nM | 1.24 to 1.39 | 1.24 to 1.39 | 1 to 1.15 | ≤ 1 | > 20 | > 20 | > 0.85 | > 0.85 | 
6 | CN(Cc1cc2c(c(C(F)(F)F)c1)CN(c1cccc([C@]3(Cc4nncn4C)C[C@@H](C#N)C3)c1)C2=O)C1CC(F)(F)C1 [Compound 22, (1r,3r)-3-(3-(6-(((3,3-difluorocyclobutyl)(methyl)amino)methyl)-1-oxo-4-(trifluoromethyl)isoindolin-2-yl)phenyl)-3-((4-methyl-4H-1,2,4-triazol-3-yl)methyl)cyclobutane-1-carbonitrile] | 2 to 5 nM | > 1.39 | > 1.39 | 1 to 1.15 | 1 to 1.15 | ≤ 15 | ≤ 15 | 0.4 to 0.85 | 0.4 to 0.85 | 2 to 5 nM
7 | Cn1cnnc1C[C@]1(c2cccc(N3Cc4c(cc(CNC5CC6(C5)CC6(F)F)cc4C(F)(F)F)C3=O)c2)C[C@H](C#N)C1 (stereo partly drawn) [Compound 23, (1r,3r)-3-(3-(6-(((1,1-difluorospiro[2.3]hexan-5-yl)amino)methyl)-1-oxo-4-(trifluoromethyl)isoindolin-2-yl)phenyl)-3-((4-methyl-4H-1,2,4-triazol-3-yl)methyl)cyclobutane-1-carbonitrile] | 1 to 2 nM | 1.24 to 1.39 | 1.24 to 1.39 | 1 to 1.15 | 1 to 1.15 | 15 to 20 | 15 to 20 | 0.4 to 0.85 | 0.4 to 0.85 | 1 to 2 nM
8 | Cn1cnnc1C[C@]1(c2cccc(N3Cc4c(cc(CNC5COC(C)(C)C5)cc4C(F)(F)F)C3=O)c2)C[C@H](C#N)C1 (stereo partly drawn) [Compound 24, (1r,3r)-3-(3-(6-(((5,5-dimethyltetrahydrofuran-3-yl)amino)methyl)-1-oxo-4-(trifluoromethyl)isoindolin-2-yl)phenyl)-3-((4-methyl-4H-1,2,4-triazol-3-yl)methyl)cyclobutane-1-carbonitrile] | 2 to 5 nM | 1.24 to 1.39 | 1.24 to 1.39 | > 1.15 | 1 to 1.15 | ≤ 15 | 15 to 20 | 0.4 to 0.85 | 0.4 to 0.85 | 2 to 5 nM
9 | CC1CCCCN(Cc2cc3c(c(C(F)(F)F)c2)CN(c2cccc([C@]4(Cc5nncn5C)C[C@@H](C#N)C4)c2)C3=O)C1 (stereo partly drawn) [Compound 25, (1r,3r)-3-((4-methyl-4H-1,2,4-triazol-3-yl)methyl)-3-(3-(6-((3-methylazepan-1-yl)methyl)-1-oxo-4-(trifluoromethyl)isoindolin-2-yl)phenyl)cyclobutane-1-carbonitrile] | < 1 nM | 1.24 to 1.39 | 1.24 to 1.39 | 1 to 1.15 | ≤ 1 | > 20 | > 20 | > 0.85 | > 0.85 | < 1 nM
10 | Cn1cnnc1C[C@]1(c2cccc(N3Cc4c(cc(CN5CCCCC(C)(F)C5)cc4C(F)(F)F)C3=O)c2)C[C@H](C#N)C1 (stereo partly drawn) [Compound 26, (1r,3r)-3-(3-(6-((3-fluoro-3-methylazepan-1-yl)methyl)-1-oxo-4-(trifluoromethyl)isoindolin-2-yl)phenyl)-3-((4-methyl-4H-1,2,4-triazol-3-yl)methyl)cyclobutane-1-carbonitrile] | 2 to 5 nM | ≤ 1.24 | ≤ 1.24 | ≤ 1 | ≤ 1 | ≤ 15 | ≤ 15 | < 0.4 | < 0.4 | 
